Literature values in patent US20050255458A1, “Drug discovery assays based on the biology of chronic disease” (priority 2002, published 2005).
Like-named read-outs stand apart in the source and are kept apart here.

Key:
[1] = cited from earlier work
AR gene = details: LNCaP; cited from earlier work
Elk-1 = details: Peterziel 1999; cited from earlier work
ERK = details: cited from earlier work
TF antigen = details: starting on day 3, significant on day 28; cited from earlier work
[2] = tested on: hair follicles (onset of anagen); details: cited from earlier work
TF [3] = details: cited from earlier work
NOD mice = details: mouse, in vivo; cited from earlier work
TF [4] = details: dose-dependent; cited from earlier work
ACE [5] = target: T1, ACE (Oryctolagus cuniculus, UniProt P12822); details: cited from earlier work
T1 construct: from tissue; host or cells: whole animal, in vivo (Watanabe rabbit)
T1 sequence (P12822 34-1310): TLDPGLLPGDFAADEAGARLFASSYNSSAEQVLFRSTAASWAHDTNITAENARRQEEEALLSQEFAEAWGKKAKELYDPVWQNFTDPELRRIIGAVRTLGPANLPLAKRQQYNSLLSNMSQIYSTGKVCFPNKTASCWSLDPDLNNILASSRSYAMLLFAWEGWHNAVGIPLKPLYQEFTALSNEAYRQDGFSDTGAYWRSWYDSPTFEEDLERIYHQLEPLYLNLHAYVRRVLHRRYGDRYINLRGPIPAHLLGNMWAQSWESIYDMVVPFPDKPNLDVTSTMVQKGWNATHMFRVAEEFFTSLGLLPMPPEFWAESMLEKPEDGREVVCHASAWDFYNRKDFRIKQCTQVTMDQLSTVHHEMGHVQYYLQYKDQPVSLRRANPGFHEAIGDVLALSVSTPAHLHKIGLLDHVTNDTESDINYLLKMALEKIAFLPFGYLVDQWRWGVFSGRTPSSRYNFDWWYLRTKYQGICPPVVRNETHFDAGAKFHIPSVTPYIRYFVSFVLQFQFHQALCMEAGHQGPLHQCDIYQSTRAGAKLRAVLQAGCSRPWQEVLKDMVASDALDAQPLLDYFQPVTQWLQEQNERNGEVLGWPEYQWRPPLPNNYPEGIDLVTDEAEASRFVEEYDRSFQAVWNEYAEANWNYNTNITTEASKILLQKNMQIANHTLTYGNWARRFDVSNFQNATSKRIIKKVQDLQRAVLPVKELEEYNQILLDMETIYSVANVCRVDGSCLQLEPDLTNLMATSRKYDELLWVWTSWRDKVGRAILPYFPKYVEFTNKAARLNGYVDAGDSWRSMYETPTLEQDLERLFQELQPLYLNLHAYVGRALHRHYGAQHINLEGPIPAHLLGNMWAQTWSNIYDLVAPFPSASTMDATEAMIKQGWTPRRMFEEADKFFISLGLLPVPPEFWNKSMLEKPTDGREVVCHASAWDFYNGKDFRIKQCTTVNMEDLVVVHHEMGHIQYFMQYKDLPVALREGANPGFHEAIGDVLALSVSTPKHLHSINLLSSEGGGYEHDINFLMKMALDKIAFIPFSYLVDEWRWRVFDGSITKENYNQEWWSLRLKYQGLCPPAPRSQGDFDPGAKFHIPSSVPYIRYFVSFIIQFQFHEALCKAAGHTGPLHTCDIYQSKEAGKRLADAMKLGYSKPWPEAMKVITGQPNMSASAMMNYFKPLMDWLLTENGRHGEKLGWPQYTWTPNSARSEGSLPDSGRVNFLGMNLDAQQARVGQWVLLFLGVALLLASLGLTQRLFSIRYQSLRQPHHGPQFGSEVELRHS

ACE [6] = target: T2, ACE (Mus musculus, UniProt P09470); details: cited from earlier work
T2 sequence (P09470 35-1312): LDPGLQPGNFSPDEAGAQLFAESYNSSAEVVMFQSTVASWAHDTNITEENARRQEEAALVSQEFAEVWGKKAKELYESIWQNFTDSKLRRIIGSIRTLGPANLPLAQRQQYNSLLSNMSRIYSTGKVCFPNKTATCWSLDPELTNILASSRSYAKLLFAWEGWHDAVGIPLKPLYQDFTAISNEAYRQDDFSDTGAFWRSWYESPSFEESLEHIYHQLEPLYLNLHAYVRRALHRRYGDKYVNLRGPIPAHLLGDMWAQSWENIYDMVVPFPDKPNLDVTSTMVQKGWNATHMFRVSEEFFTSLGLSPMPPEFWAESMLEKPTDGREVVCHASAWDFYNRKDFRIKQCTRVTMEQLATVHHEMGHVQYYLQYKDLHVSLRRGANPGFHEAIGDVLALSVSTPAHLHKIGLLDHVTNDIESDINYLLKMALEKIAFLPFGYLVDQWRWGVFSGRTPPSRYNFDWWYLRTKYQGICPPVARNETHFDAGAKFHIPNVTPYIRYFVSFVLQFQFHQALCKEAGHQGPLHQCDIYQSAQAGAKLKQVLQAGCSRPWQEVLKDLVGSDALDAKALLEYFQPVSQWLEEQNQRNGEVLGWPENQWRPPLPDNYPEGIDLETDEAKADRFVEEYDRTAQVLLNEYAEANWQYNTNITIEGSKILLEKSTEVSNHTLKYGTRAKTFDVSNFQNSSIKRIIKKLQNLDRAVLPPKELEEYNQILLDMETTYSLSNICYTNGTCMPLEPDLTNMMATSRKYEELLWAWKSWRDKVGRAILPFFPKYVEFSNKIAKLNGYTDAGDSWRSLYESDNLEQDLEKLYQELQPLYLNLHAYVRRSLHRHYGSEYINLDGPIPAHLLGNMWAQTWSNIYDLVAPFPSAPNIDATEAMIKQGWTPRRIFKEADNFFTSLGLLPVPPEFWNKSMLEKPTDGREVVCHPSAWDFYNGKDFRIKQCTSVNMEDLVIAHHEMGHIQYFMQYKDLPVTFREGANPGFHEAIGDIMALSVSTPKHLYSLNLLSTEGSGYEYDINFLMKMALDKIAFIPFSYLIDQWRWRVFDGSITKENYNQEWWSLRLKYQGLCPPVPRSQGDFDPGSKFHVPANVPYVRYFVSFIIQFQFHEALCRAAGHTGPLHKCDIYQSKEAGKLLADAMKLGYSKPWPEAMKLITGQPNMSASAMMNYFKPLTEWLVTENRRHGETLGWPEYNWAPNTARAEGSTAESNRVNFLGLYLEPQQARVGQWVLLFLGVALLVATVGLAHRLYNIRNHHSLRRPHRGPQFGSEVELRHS

AChRδ and AChRε genes = details: cited from earlier work
ERK1/2 = details: cited studies, various cells; cited from earlier work
metallothionein (MT) = details: OC15 EC, OC15 END cells; cited from earlier work
TF [7] = details: cited from earlier work; remark: listed apart in the source
GABP = details: cited from earlier work; for GABP DNA binding activity, treated nuclear extracts: 3T3 nuclear extracts, DTT on extracts of DEM-treated cells, GSSG 5 mM

CN(N=O)C(=O)N[C@H]1C(O)O[C@H](CO)[C@@H](O)[C@@H]1O (mixture of isomers) [STZ, streptozotocin]
increase in ratio of liver weight to body weight ([1]; 8 days after injection): 12% | hepatocyte mitosis ([1]; 8 days): 300 % of normal | increase in ratio of liver weight to body weight ([1]; 30 days): 44% | hepatocyte mitosis ([1]; 90 days): 25 % of normal

EGF: EGF, an ERK agent
Effect on [mRNAAR] (AR gene): ↓[mRNAAR] | Elk-1 transcription activity (Elk-1): Elk-1 activation | Effect on [ERK^phos] (ERK; DU145): ↑[ERK^Phos] | Effect on [ERK^phos] (ERK; LNCaP): ↑[ERK^phos] | Effect on [ERK^phos] (ERK; PC-3): ↑[ERK^phos]

CCCCc1nc(Cl)c(CO)n1Cc1ccc(-c2ccccc2-c2nn[nH]n2)cc1 [losartan]
plasma TF antigen levels (TF antigen): negative effect on plasma TF antigen levels

CC(O)(CS(=O)(=O)c1ccc(F)cc1)C(=O)Nc1ccc(C#N)c(C(F)(F)F)c1 (stereo not shown) [casodex]
Elk-1 transcription activity (Elk-1): increase in Elk-1 transcription activity

C[C@]12CC[C@@H]3c4ccc(O)cc4CC[C@H]3[C@@H]1CC[C@@H]2O [17β-estradiol]
delay in hair regrowth ([2]; topical 10 nmol twice weekly, female CD-1 mice): indefinite delay | hair growth ([2]; topical application (Chanda 2000)): decreased hair growth

CC(C)(O)C(=O)Nc1ccc([N+](=O)[O-])c(C(F)(F)F)c1 [hydroxyflutamide]
Elk-1 transcription activity (Elk-1): increase in Elk-1 transcription activity

vitamin E
effect on LPS induced TF expression (TF [3]): inhibited the LPS induced expression | effect on Cu^+2 induced procoagulant activity (TF [3]; probucol 20, vitamin E 50, BHT 50, U74389G 20 μmol/L): inhibited the Cu^+2 induced procoagulant activity | insulitis and diabetes (NOD mice): decreased insulitis and delayed diabetes

CCNc1cccnc1N1CCN(CC2(C)CCc3c(C)c(O)c(C)c(C)c3O2)CC1.Cl (stereo not shown) [U78518F]
insulitis and diabetes (NOD mice): decreased insulitis and delayed diabetes

CN(CC(=O)NO)C(=O)[C@@H]1CCCC[C@@H]1C(=O)O [idrapril]
TF activity (TF [4]): decreased TF activity

NC(=O)c1cccnc1 [nicotinamide]
insulitis and diabetes (NOD mice): decreased insulitis and delayed diabetes

C[C@H](CSC(=O)c1ccccc1)C(=O)N1C[C@@H](Sc2ccccc2)C[C@H]1C(=O)O [zofenopril]
decrease of aortic corrected cumulative lesion area (ACE [5]; 0.5 mg/kg/day, 6 weeks): 34% | decrease of common carotid corrected cumulative lesion area (ACE [5]; 0.5 mg/kg/day, 6 weeks): 39% | intimal presence of native LDL (ACE [5]; p<0.01 vs placebo): decreased | intimal presence of macrophage derived foam cells (ACE [5]; p<0.05 vs placebo): decreased | macrophage-derived foam cells staining in the intima (ACE [6]; 1 mg/kg/day): significant decrease in macrophage-derived foam cells staining | native LDL staining in the intima (ACE [6]; 1 mg/kg/day): significant decrease in native LDL staining | total lesion area compared to placebo (ACE [6]; zofenopril 0.05 or 1, captopril 5, enalapril 0.5 mg/kg/day, 29 weeks): significantly decreased total lesion area

heregulin
increase in GABPα protein level (AChRδ and AChRε genes; Western blot, treated vs untreated cells): 2 fold | phosphorylation of GABPα and GABPβ (AChRδ and AChRε genes; chick primary myotubes): increased phosphorylation | transcription of AChRδ and AChRε genes (AChRδ and AChRε genes): increased transcription | transcription of utrophin (AChRδ and AChRε genes): stimulated transcription | phosphorylation of ERK1/2 (ERK1/2): phosphorylation of ERK1/2

CC(=O)[O-].[Na+] [sodium acetate]
MT mRNA levels (metallothionein (MT)): no effect

CC(=O)N[C@@H](CS)C(=O)O [NAC, N-Acetylcysteine]
TF activity (TF [7]; cells incubated with AGE-alb, 30 mmol/L): concentration dependent inhibition of TF activity | AGE-alb induced TF mRNA (TF [7]): almost completely suppressed | GABP DNA binding activity (EMSA) (GABP; 3T3 cells treated 2 h, single and double N-box probes): prevented

O=C(O)CCCC[C@@H]1CCSS1 (racemic) [lipoic acid]
insulitis and diabetes (NOD mice): decreased insulitis and delayed diabetes

O[C@H](CS)[C@H](O)CS (racemic) [DTT, dithiothreitol]
GABP DNA binding activity, treated nuclear extracts (GABP): restored GABP binding activity

CCC(=O)[O-].[Na+] [sodium propionate]
MT mRNA levels (metallothionein (MT)): no effect

oxidized glutathione [GSSG]
GABP DNA binding activity, treated nuclear extracts (GABP): nearly abolished GABP DNA binding
